Data taken from patent US8329717B2, “Pyrimidine derivatives and their use for controlling undesired plant growth” (Bayer Cropscience AG, priority 2008, dated 2012).

Tests used:
[1] = logp (HCOOH), chemicophysical data; conditions: HCOOH (formic acid)
[2] = tested on: PHBPU; test: Post-emergence herbicidal effect; format: in vivo; conditions: Dosage 320 g/ha, one-leaf stage, visual scoring after ca. 3 weeks vs untreated controls, 100% = plants have died
Procedure: (§1) 2. Post-Emergence Herbicidal Effect and Crop Plant Compatibility Seeds of monocotyledonous or dicotyledonous weed plants or crop plants are planted in wood-fiber pots in sandy loam, covered with earth and grown in a greenhouse under good growth conditions. 2 to 3 weeks after sowing, the test plants are treated in the one-leaf stage. The compounds according to the invention, formulated in the form of wettable powders (WP) or as emulsion concentrates (EC), are then sprayed onto the green plant parts as aqueous suspension or emulsion at a water application rate of 600 to 800 l/ha (converted) with the addition of 0.2% of wetting agent. The dosage of the compounds according to the invention is given in grams per hectare. After ca. 3 weeks' standing time of the test plants in the greenhouse under optimum growth conditions, the effect of the preparations is scored visually in comparison with untreated controls (herbicidal effect in percent (%): 100% effect=plants have died, 0% effect=as control plants).

[3] = tested on: Lolium multiflorum; test: Post-emergence herbicidal effect; format: in vivo; conditions: Dosage 320 g/ha, one-leaf stage, visual scoring after ca. 3 weeks vs untreated controls, 100% = plants have died
Procedure: as §1, with “The following abbreviations are used in the tables below: [table] 2.” for “2.”

[4] = tested on: Alopecurus myosuroides; test: Post-emergence herbicidal effect; format: in vivo; conditions: Dosage 320 g/ha, one-leaf stage, visual scoring after ca. 3 weeks vs untreated controls, 100% = plants have died
Procedure: as §1, with “The following abbreviations are used in the tables below: [table] 2.” for “2.”

[5] = tested on: Echinochloa crus-galli; test: Post-emergence herbicidal effect; format: in vivo; conditions: Dosage 320 g/ha, one-leaf stage, visual scoring after ca. 3 weeks vs untreated controls, 100% = plants have died
Procedure: as §1, with “The following abbreviations are used in the tables below: [table] 2.” for “2.”

[6] = tested on: Stellaria media; test: Post-emergence herbicidal effect; format: in vivo; conditions: Dosage 320 g/ha, one-leaf stage, visual scoring after ca. 3 weeks vs untreated controls, 100% = plants have died
Procedure: as §1, with “The following abbreviations are used in the tables below: [table] 2.” for “2.”

[7] = tested on: Polygonum convolvulus; test: Post-emergence herbicidal effect; format: in vivo; conditions: Dosage 320 g/ha, one-leaf stage, visual scoring after ca. 3 weeks vs untreated controls, 100% = plants have died
Procedure: as §1, with “The following abbreviations are used in the tables below: [table] 2.” for “2.”

[8] = tested on: Veronica persica; test: Post-emergence herbicidal effect; format: in vivo; conditions: Dosage 320 g/ha, one-leaf stage, visual scoring after ca. 3 weeks vs untreated controls, 100% = plants have died
Procedure: as §1, with “The following abbreviations are used in the tables below: [table] 2.” for “2.”

[9] = tested on: Lolium multiflorum; test: Pre-emergence herbicidal effect; format: in vivo; conditions: Dosage 320 g/ha, visual scoring after 3 weeks vs untreated controls, 100% = plants have died
Description: (§2) 1. Pre-Emergence Herbicidal Effect and Crop Plant Compatibility Seeds of monocotyledonous or dicotyledonous weed plants or crop plants are planted in wood-fiber pots in sandy loam and covered with earth. The compounds according to the invention, formulated in the form of wettable powders (WP) or as emulsion concentrates (EC), are then applied as aqueous suspension or emulsion at a water application rate of 600 to 800 l/ha (converted) with the addition of 0.2% of wetting agent to the surface of the covering earth. The dosage of the compounds according to the invention is given in grams per hectare. Following the treatment, the pots are placed in a greenhouse and kept under good growth conditions for the test plants. The visual scoring of the damage on the test plants is carried out after an experiment time of 3 weeks in comparison with untreated controls (herbicidal effect in percent (%): 100% effect=plants have died, 0% effect=as control plants). The following abbreviations are used in the tables below: [table]

[10] = tested on: Alopecurus myosuroides; test: Pre-emergence herbicidal effect; format: in vivo; conditions: Dosage 320 g/ha, visual scoring after 3 weeks vs untreated controls, 100% = plants have died
Description: as §2

[11] = tested on: Viola tricolor; test: Pre-emergence herbicidal effect; format: in vivo; conditions: Dosage 320 g/ha, visual scoring after 3 weeks vs untreated controls, 100% = plants have died
Description: as §2

[12] = tested on: Echinochloa crus-galli; test: Pre-emergence herbicidal effect; format: in vivo; conditions: Dosage 320 g/ha, visual scoring after 3 weeks vs untreated controls, 100% = plants have died
Description: as §2

[13] = tested on: Matricaria inodora; test: Pre-emergence herbicidal effect; format: in vivo; conditions: Dosage 320 g/ha, visual scoring after 3 weeks vs untreated controls, 100% = plants have died
Description: as §2

[14] = tested on: Stellaria media; test: Pre-emergence herbicidal effect; format: in vivo; conditions: Dosage 320 g/ha, visual scoring after 3 weeks vs untreated controls, 100% = plants have died
Description: as §2

[15] = tested on: Veronica persica; test: Pre-emergence herbicidal effect; format: in vivo; conditions: Dosage 320 g/ha, visual scoring after 3 weeks vs untreated controls, 100% = plants have died
Description: as §2

[16] = tested on: Setaria viridis; test: Pre-emergence herbicidal effect; format: in vivo; conditions: Dosage 320 g/ha, visual scoring after 3 weeks vs untreated controls, 100% = plants have died
Description: as §2

[17] = tested on: Amaranthus retroflexus; test: Post-emergence herbicidal effect; format: in vivo; conditions: Dosage 320 g/ha, one-leaf stage, visual scoring after ca. 3 weeks vs untreated controls, 100% = plants have died
Procedure: as §1, with “The following abbreviations are used in the tables below: [table] 2.” for “2.”

[18] = tested on: Viola tricolor; test: Post-emergence herbicidal effect; format: in vivo; conditions: Dosage 320 g/ha, one-leaf stage, visual scoring after ca. 3 weeks vs untreated controls, 100% = plants have died
Procedure: as §1, with “The following abbreviations are used in the tables below: [table] 2.” for “2.”

[19] = tested on: Matricaria inodora; test: Post-emergence herbicidal effect; format: in vivo; conditions: Dosage 320 g/ha, one-leaf stage, visual scoring after ca. 3 weeks vs untreated controls, 100% = plants have died
Procedure: as §1, with “The following abbreviations are used in the tables below: [table] 2.” for “2.”

[20] = tested on: Abutilon theophrasti; test: Post-emergence herbicidal effect; format: in vivo; conditions: Dosage 320 g/ha, one-leaf stage, visual scoring after ca. 3 weeks vs untreated controls, 100% = plants have died
Procedure: as §1, with “The following abbreviations are used in the tables below: [table] 2.” for “2.”

[21] = tested on: Setaria viridis; test: Post-emergence herbicidal effect; format: in vivo; conditions: Dosage 320 g/ha, one-leaf stage, visual scoring after ca. 3 weeks vs untreated controls, 100% = plants have died
Procedure: as §1, with “The following abbreviations are used in the tables below: [table] 2.” for “2.”

[22] = tested on: Amaranthus retroflexus; test: Pre-emergence herbicidal effect; format: in vivo; conditions: Dosage 320 g/ha, visual scoring after 3 weeks vs untreated controls, 100% = plants have died
Description: as §2

[23] = tested on: Avena fatua; test: Pre-emergence herbicidal effect; format: in vivo; conditions: Dosage 320 g/ha, visual scoring after 3 weeks vs untreated controls, 100% = plants have died
Description: as §2

[24] = tested on: Polygonum convolvulus; test: Pre-emergence herbicidal effect; format: in vivo; conditions: Dosage 320 g/ha, visual scoring after 3 weeks vs untreated controls, 100% = plants have died
Description: as §2

[25] = tested on: Abutilon theophrasti; test: Pre-emergence herbicidal effect; format: in vivo; conditions: Dosage 320 g/ha, visual scoring after 3 weeks vs untreated controls, 100% = plants have died
Description: as §2

Compound	Post-emergence herbicidal effect PHBPU [2] [%]	Post-emergence herbicidal effect LOLMU [3] [%]	Post-emergence herbicidal effect ALOMY [4] [%]	Post-emergence herbicidal effect ECHCG [5] [%]	Post-emergence herbicidal effect STEME [6] [%]	Post-emergence herbicidal effect POLCO [7] [%]	Post-emergence herbicidal effect VERPE [8] [%]	Pre-emergence herbicidal effect LOLMU [9] [%]	Pre-emergence herbicidal effect ALOMY [10] [%]	Pre-emergence herbicidal effect VIOTR [11] [%]	Pre-emergence herbicidal effect ECHCG [12] [%]	Pre-emergence herbicidal effect MATIN [13] [%]	Pre-emergence herbicidal effect STEME [14] [%]	Pre-emergence herbicidal effect VERPE [15] [%]	Pre-emergence herbicidal effect SETVI [16] [%]	Post-emergence herbicidal effect AMARE [17] [%]	Post-emergence herbicidal effect VIOTR [18] [%]	Post-emergence herbicidal effect MATIN [19] [%]	Post-emergence herbicidal effect ABUTH [20] [%]	Pre-emergence herbicidal effect AMARE [22] [%]	other results
CCc1nc(N[C@@H]2CCc3ccccc32)nc(N)c1C#N [Example 1.62, 4-Amino-2-[(1R)-2,3-dihydro-1H-inden-1-ylamino]-6-ethylpyrimidine-5-carbonitrile]	80	90	80	90	80	80	80	80	80	100	100	90	100	100	90	–	–	–	–	–	chromatographic logP [1]: 2.18
Cc1ccc2c(c1)[C@H](Nc1nc(C)c([N+](=O)[O-])c(N)n1)[C@@H](C)C2 [Example 1.120]	100	–	–	100	85	80	90	90	100	100	100	100	100	100	100	90	90	80	90	100	Post-emergence herbicidal effect SETVI [21]: 85%; Pre-emergence herbicidal effect AVEFA [23]: 80%; Pre-emergence herbicidal effect POLCO [24]: 100%
Cc1nc(N[C@@H]2CCOc3c(F)cccc32)nc(N)c1C#N [Example 1.26]	90	90	85	90	90	80	95	100	100	100	100	100	100	100	100	85	85	80	80	100	Pre-emergence herbicidal effect AVEFA [23]: 90%; Pre-emergence herbicidal effect ABUTH [25]: 80%; Pre-emergence herbicidal effect POLCO [24]: 90%
Cc1nc(NC2CCc3ccccc32)nc(N)c1C#N (racemic) [Example 1.24]	–	100	–	90	100	–	90	–	–	–	–	–	–	–	–	–	–	80	–	–	–
